From article PMC7562955 (Nature Communications, 2020)

Target: T1, human TLR8 (Homo sapiens, UniProt Q9NR97)
T1 construct: host or cells: HEK293 (TLR8/NF-κB/SEAPorter)
T1 sequence (Q9NR97 27-1041): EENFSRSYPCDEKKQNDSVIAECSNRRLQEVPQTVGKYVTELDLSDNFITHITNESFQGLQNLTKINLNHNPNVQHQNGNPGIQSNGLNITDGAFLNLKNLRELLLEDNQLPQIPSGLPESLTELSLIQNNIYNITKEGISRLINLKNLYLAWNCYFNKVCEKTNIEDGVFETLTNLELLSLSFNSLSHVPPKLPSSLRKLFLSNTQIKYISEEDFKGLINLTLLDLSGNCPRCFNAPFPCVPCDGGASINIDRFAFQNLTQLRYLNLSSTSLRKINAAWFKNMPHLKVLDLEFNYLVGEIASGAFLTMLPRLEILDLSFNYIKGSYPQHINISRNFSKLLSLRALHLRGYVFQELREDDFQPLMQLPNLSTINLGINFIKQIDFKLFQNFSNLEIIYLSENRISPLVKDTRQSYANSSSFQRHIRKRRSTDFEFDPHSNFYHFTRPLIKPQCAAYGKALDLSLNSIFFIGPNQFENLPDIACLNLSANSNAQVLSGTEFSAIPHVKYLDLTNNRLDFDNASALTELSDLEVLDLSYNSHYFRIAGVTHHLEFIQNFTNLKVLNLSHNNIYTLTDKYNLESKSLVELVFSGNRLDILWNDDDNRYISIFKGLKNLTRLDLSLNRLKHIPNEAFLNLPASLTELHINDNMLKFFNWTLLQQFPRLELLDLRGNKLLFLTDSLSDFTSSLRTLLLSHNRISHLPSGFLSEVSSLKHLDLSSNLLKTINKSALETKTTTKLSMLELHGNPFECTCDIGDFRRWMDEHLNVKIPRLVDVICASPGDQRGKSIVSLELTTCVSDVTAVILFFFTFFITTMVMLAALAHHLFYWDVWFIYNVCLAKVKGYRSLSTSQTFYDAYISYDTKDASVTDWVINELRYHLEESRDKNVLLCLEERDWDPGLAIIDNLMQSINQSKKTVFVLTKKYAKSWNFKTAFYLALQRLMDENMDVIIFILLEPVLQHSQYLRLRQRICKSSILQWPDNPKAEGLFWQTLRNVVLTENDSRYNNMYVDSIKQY
Test: Human TLR8 reporter gene inhibitory activity assay (NF-κB/SEAP HEK293)
Type: cell-based
Parameters: key to human TLR8 activity, reporter signal: SEAP activity as absorbance at 405 nm
Conditions: for human TLR8 activity, reporter signal: R848 30 μM
Experimental: Compounds were dissolved in dimethyl sulfoxide. Before stimulation with compound, Human TLR7 reporter cell line (TLR7/NF-κB/SEAPorter^TM HEK293 cell, Novus Biological, USA), human TLR8 reporter cell line (TLR8/NF-κB/SEAPorter^TM HEK293 cell, Novus Biological), and human TLR9 reporter cell line (TLR9/NF-κB/SEAPorter^TM HEK293 cell, Novus Biological) were seeded in 96-well microtiter plate (AGC techno glass, Japan) at 5 × 10^4 cells/well in DMEM (GIBCO, United Kingdam) with 10 % fetal bovine serum (GIBCO), and 10 ug/ml Blastcidin S HCl (GIBCO) and incubated at 37 °C in 5% CO2. […] The plates were then incubated an additional 20 ± 1 h at 37 °C in 5% CO2 and then the secreted embryonic alkaline phosphatase (SEAP) activity was measured as activation of human TLR7, 8, and 9. The SEAP activity was evaluated as follows: pNPP (Invitrogen, USA) was added to the incubated sample (50 μl/well); after 15 min, 4 M sodium hydroxide solution (nacalai tesque, Japan) was added thereto (50 μl/well) to quench the reaction; and the absorbance of each sample was measured at 405 nm with microplate reader SpectraMax M4 (Molecular Devices, USA).

SMILES	inhibition of TLR8	human TLR8 activity, reporter signal (compound 0.0001 nM (as headed))	human TLR8 activity, reporter signal (compound 0.001 nM (as headed))	human TLR8 activity, reporter signal (compound 0.003 nM (as headed))	human TLR8 activity, reporter signal (compound 0.01 nM (as headed))	human TLR8 activity, reporter signal (compound 0.03 nM (as headed))	human TLR8 activity, reporter signal (compound 0.1 nM (as headed))	human TLR8 activity, reporter signal (compound 0.3 nM (as headed))	human TLR8 activity, reporter signal (compound 1 nM (as headed))	human TLR8 activity, reporter signal (compound 3 nM (as headed))	human TLR8 activity, reporter signal (compound 10 nM (as headed))	human TLR8 activity, reporter signal (compound 30 nM (as headed))	human TLR8 activity, reporter signal (compound 100 nM (as headed))
CCCCOc1nc(N)c2nc(-c3cccnc3)n(Cc3ccccc3)c2n1 [Cpd-5]	without causing any inhibition	2.52	2.344	2.316	2.3178	2.3193	2.309	2.404	2.342	2.269	2.216	2.0417	2.1673
CCOc1nc(N)c2nc(-c3cncc(F)c3)n(Cc3ccc(CN4C[C@@H]5C[C@H]4CN5C)cc3)c2n1 [Cpd-6]	–	2.3942	2.34	2.276	2.199	2.181	2.241	2.31	2.218	2.159	2.04	1.859	1.331
CCOc1nc(C)c2nc(-c3cncc(F)c3)n(Cc3ccc(CN4C[C@@H]5C[C@H]4CN5C)cc3)c2n1 [Cpd-7]	–	2.3942	2.221	2.201	2.199	2.25	2.186	2.297	2.272	2.178	2.071	1.909	1.678
